Data from patent US20230226027A1, “THIENOPYRIDINE DERIVATIVES FOR USE IN THE TREATMENT OF CORONAVIRUS INFECTION” (INSERM (INSTITUT NATIONAL DE LA SANTÉ ET DE LA RECHERCHE …, priority 2020, published 2023).
Read-outs that look alike come from different tables or passages of the source.

Tests used:
SARS-CoV-2 [1] = format: cell-based; settings: Calu-3 cells, concentration ≥ 10 µM, even when given 4 h post-infection, TCID50 24 hours post-infection (FIG. 4)
SARS-CoV-2 [2] = format: cell-based; settings: Calu-3 cells, 2 h pre-treatment, MOI 0.001, 24 hours post-infection (FIGS. 2A-2B)
Calu-3 cells = assay: Cellular viability assay (MTT) in Calu-3 cells; format: cell-based, human; settings: 24 hours of treatment, MTT (FIG. 3)
Experimental: FIG. 3. Analysis of cellular viability in human lung epithelial Calu-3 cells treated with AM-001. Calu-3 cells treated for 24 hours with the indicated concentrations of AM-001. Cellular viability was measured with the Cell Proliferation Kit I (MTT) (Roche Applied Science, Indianapolis, IN) according to the manufacturer’s protocol.
Calu-3 cells were plated 48 hours before treatment in 96-wells plates at a density of 1.10^5 cells per well. After 24 hours of treatment with the different concentrations of AM-001, cells viability was measured using the Cell Proliferation Kit I (MTT) (Roche Applied Science, Indianapolis, IN) according to the manufacturer’s protocol.

SARS-CoV-2 [3] = format: cell-based; settings: VeroE6 cells, 1 h pretreatment, MOI 0.001, viral RNA in supernatant 24 hours post-infection (FIG. 1)

Nc1c(C(=O)Nc2ccc(F)cc2)sc2nc(-c3cccs3)cc(-c3ccccc3)c12 [AM-001]
infectious virus production (SARS-CoV-2 [1]): totally blocks infectious virus production
SARS CoV-2 replication (viral RNA and infectious particles in supernatant) (SARS-CoV-2 [2]): inhibit SARS CoV-2 replication
cellular toxicity (Calu-3 cells): no detected cellular toxicity
replication of SARS-CoV-2 (SARS-CoV-2 [3]): Inhibition of SARS-CoV-2 replication
replication of SARS-CoV-2 (SARS-CoV-2 [3]; listed as AM001): significantly decreases the replication
